Where a SMILES comes first, the peptide text is derived from it.
Legend:
[1] = biological target: Wnt-responsive promoter (TCF/LEF); experiment: Wnt-dependent luciferase reporter assay; assay type: cell-based, murine
Protocol: The luciferase reporter assay is commonly used as a tool to study gene expression at the transcriptional level. Peptides from libraries described herein were characterized for ability to suppress transcription in cells with luciferase expression controlled by a Wnt-responsive promoter. Peptides were added to cells transfected with luciferase gene downstream of a Wnt-responsive promoter. Cells were stimulated with Wnt3a protein and incubated with peptides from libraries described herein. Luminescence was recorded to determine the peptides with the highest β-catenin-inhibiting activity. EC50 values were calculated based on the inhibition of luminescence and expressed as concentration (uM) in Table 5.
Peptides were assessed for their ability to inhibit Wnt signaling. Murine 3T3 fibroblasts that express luciferase under a Wnt-responsive promoter (TCF/LEF) (Enzo Life Sciences, Farmingdale, NY) were stimulated with Wnt3a in the presence of increasing concentrations of peptide inhibitor (Hit 1: SEQ ID NO:217, Hit 2: SEQ ID NO:224, Hit 3: SEQ ID NO:228, Hit 4: SEQ ID NO:227, Hit 5: SEQ ID NO:220, Hit 6: SEQ ID NO:168. Hit 7: SEQ ID NO:226) or with vehicle control (FIG. 2A).

β-catenin = biological target: T1, β-catenin (Homo sapiens, UniProt P35222); experiment: KD50 measurement using competitive fluorescence polarization (FP) with labelled TCF4; assay type: binding; details: fluorescence polarization, β-catenin; for Kd: read-out: β-Cat FP KD
T1 sequence (P35222 1-781): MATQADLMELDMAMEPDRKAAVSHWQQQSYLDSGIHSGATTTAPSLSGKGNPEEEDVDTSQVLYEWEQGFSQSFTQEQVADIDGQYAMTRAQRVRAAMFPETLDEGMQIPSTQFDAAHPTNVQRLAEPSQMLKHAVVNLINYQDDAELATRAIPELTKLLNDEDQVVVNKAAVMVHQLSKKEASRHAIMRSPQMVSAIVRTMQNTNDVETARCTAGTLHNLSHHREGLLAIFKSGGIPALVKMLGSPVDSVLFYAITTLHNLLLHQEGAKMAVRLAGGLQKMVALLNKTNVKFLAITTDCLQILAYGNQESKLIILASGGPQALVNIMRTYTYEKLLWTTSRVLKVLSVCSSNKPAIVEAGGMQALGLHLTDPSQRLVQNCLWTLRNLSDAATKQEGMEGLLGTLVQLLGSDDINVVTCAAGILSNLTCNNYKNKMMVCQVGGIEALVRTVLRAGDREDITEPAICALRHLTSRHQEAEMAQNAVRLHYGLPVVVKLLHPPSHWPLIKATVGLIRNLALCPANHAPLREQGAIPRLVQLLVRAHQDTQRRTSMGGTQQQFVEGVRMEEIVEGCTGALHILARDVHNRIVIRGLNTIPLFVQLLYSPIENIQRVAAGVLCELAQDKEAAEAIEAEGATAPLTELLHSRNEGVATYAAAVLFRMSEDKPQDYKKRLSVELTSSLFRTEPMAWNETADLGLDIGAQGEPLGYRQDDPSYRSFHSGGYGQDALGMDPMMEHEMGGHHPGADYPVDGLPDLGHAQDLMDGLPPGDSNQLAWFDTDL
Method in brief: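 First, β-catenin at 100 nM is mixed with 5 nM labelled TCF4 at room temperature. Next, compound is added across serial dilutions (10 nM to 30 uM). Finally, fluorescence polarization is measured (ex 470 nm, em 520 nm); experiments are done three times.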

Row | SMILES | EC50 [1] | β-Cat FP Hill slope (β-catenin) | Kd (β-catenin)
1 | CC[C@H](C)[C@@H]1NC(=O)[C@@H](NC(=O)[C@H](CCC(N)=O)NC(=O)[C@@H]2CCCN2C(=O)[C@H](Cc2c[nH]c3ccccc23)NC(=O)[C@H](CCCNC(=N)N)NC(C)=O)CCCCNC(=O)CC[C@@H](C(=O)N[C@@H](Cc2c[nH]cn2)C(=O)N[C@H](C(=O)N[C@@H](CCCNC(=N)N)C(=O)N[C@@H](CCCNC(=N)N)C(=O)N[C@H](C(=O)N[C@@H](Cc2c[nH]c3ccccc23)C(=O)N[C@@H](CCCNC(=N)N)C(N)=O)C(C)C)C(C)C)NC(=O)[C@H](CC(=O)O)NC(=O)[C@H](CC(C)C)NC1=O [compound 428] (HELM PEPTIDE1{[ac].R.W.P.Q.K.I.L.D.E.H.V.R.R.V.W.R.[am]}$PEPTIDE1,PEPTIDE1,6:R3-10:R3$$$V2.0) | > 30 µM | 0.94 | < 0.4 µM
2 | CC[C@H](C)[C@@H]1NC(=O)[C@@H](NC(=O)[C@H](CCC(N)=O)NC(=O)[C@H](C)N(C)C(=O)[C@H](Cc2c[nH]c3ccccc23)NC(C)=O)CCCCNC(=O)C[C@@H](C(=O)N[C@@H](Cc2c[nH]cn2)C(=O)N[C@H](C(=O)N[C@@H](CCC(N)=O)C(=O)N[C@@H](CCCNC(=N)N)C(=O)N[C@H](C(=O)N[C@@H](Cc2c[nH]c3ccccc23)C(=O)NCC(N)=O)C(C)C)C2CCCCC2)NC(=O)[C@H](CC(=O)O)NC(=O)[C@H](CC(C)C)NC1=O [compound 430] (HELM PEPTIDE1{[ac].W.[meA].Q.K.I.L.D.D.H.[O=C([C@@H](N[*:1])C1CCCCC1)[*:2]].Q.R.V.W.G.[am]}$PEPTIDE1,PEPTIDE1,5:R3-9:R3$$$V2.0) | 15 to 22.5 µM | 1.75 | < 0.4 µM
3 | CC[C@H](C)[C@@H]1NC(=O)[C@@H](NC(=O)[C@H](CCC(N)=O)NC(=O)[C@H](C)N(C)C(=O)[C@H](Cc2c[nH]c3ccccc23)NC(C)=O)CCCCNC(=O)CC[C@@H](C(=O)N[C@@H](Cc2c[nH]cn2)C(=O)N[C@H](C(=O)N[C@@H](CCC(N)=O)C(=O)N[C@@H](CCCNC(=N)N)C(=O)N[C@H](C(=O)N[C@@H](Cc2c[nH]c3ccccc23)C(=O)NCC(N)=O)C(C)C)C2CCCCC2)NC(=O)[C@H](CC(N)=O)NC(=O)[C@H](CC(C)C)NC1=O [compound 435] (HELM PEPTIDE1{[ac].W.[meA].Q.K.I.L.N.E.H.[O=C([C@@H](N[*:1])C1CCCCC1)[*:2]].Q.R.V.W.G.[am]}$PEPTIDE1,PEPTIDE1,5:R3-9:R3$$$V2.0) | > 30 µM | 0.7 | < 0.4 µM
4 | CC[C@H](C)[C@@H]1NC(=O)[C@@H](NC(=O)[C@H](CCC(N)=O)NC(C)=O)CCCCNC(=O)CC[C@@H](C(=O)N[C@@H](Cc2c[nH]cn2)C(=O)N[C@H](C(=O)N[C@@H](CCC(N)=O)C(=O)N[C@@H](CCCNC(=N)N)C(=O)N[C@H](C(=O)N[C@@H](Cc2c[nH]c3ccccc23)C(=O)NCC(N)=O)C(C)C)C2CCCCC2)NC(=O)[C@H](CC(=O)O)NC(=O)[C@H](CC(C)C)NC1=O [compound 440] (HELM PEPTIDE1{[ac].Q.K.I.L.D.E.H.[O=C([C@@H](N[*:1])C1CCCCC1)[*:2]].Q.R.V.W.G.[am]}$PEPTIDE1,PEPTIDE1,3:R3-7:R3$$$V2.0) | 22.5 to 30 µM | 0.7 | < 0.4 µM
5 | CC[C@H](C)[C@@H]1NC(=O)[C@@H](NC(=O)[C@H](CCC(N)=O)NC(=O)[C@H](C)NC(=O)[C@H](Cc2c[nH]c3ccccc23)NC(C)=O)CCCCNC(=O)CC[C@@H](C(=O)N[C@@H](Cc2c[nH]cn2)C(=O)N[C@H](C(=O)N[C@@H](CCC(N)=O)C(=O)N[C@@H](CCCNC(=N)N)C(=O)N[C@H](C(=O)N[C@@H](Cc2c[nH]c3ccccc23)C(=O)NCC(N)=O)C(C)C)C2CCCCC2)NC(=O)[C@H](CC(=O)O)NC(=O)[C@H](CC(C)C)NC1=O [compound 441] (HELM PEPTIDE1{[ac].W.A.Q.K.I.L.D.E.H.[O=C([C@@H](N[*:1])C1CCCCC1)[*:2]].Q.R.V.W.G.[am]}$PEPTIDE1,PEPTIDE1,5:R3-9:R3$$$V2.0) | > 30 µM | 1.86 | < 0.4 µM
6 | CC[C@H](C)[C@@H]1NC(=O)[C@@H](NC(=O)[C@H](CCC(N)=O)NC(=O)[C@@H]2CCCCN2C(=O)[C@H](Cc2c[nH]c3ccccc23)NC(C)=O)CCCCNC(=O)CC[C@@H](C(=O)N[C@@H](Cc2c[nH]cn2)C(=O)N[C@H](C(=O)N[C@@H](CCC(N)=O)C(=O)N[C@@H](CCCNC(=N)N)C(=O)N[C@H](C(=O)N[C@@H](Cc2c[nH]c3ccccc23)C(=O)NCC(N)=O)C(C)C)C2CCCCC2)NC(=O)[C@H](CC(=O)O)NC(=O)[C@H](CC(C)C)NC1=O [compound 442] (HELM PEPTIDE1{[ac].W.[O=C([C@@H]1CCCCN1[*:1])[*:2]].Q.K.I.L.D.E.H.[O=C([C@@H](N[*:1])C1CCCCC1)[*:2]].Q.R.V.W.G.[am]}$PEPTIDE1,PEPTIDE1,5:R3-9:R3$$$V2.0) | < 7.5 µM | 1.51 | < 0.4 µM
7 | CC[C@H](C)[C@@H]1NC(=O)[C@@H](NC(=O)[C@H](CCC(N)=O)NC(=O)C(C)(C)NC(=O)[C@H](Cc2c[nH]c3ccccc23)NC(C)=O)CCCCNC(=O)CC[C@@H](C(=O)N[C@@H](Cc2c[nH]cn2)C(=O)N[C@H](C(=O)N[C@@H](CCC(N)=O)C(=O)N[C@@H](CCCNC(=N)N)C(=O)N[C@H](C(=O)N[C@@H](Cc2c[nH]c3ccccc23)C(=O)NCC(N)=O)C(C)C)C2CCCCC2)NC(=O)[C@H](CC(=O)O)NC(=O)[C@H](CC(C)C)NC1=O [compound 443] (HELM PEPTIDE1{[ac].W.[Aib].Q.K.I.L.D.E.H.[O=C([C@@H](N[*:1])C1CCCCC1)[*:2]].Q.R.V.W.G.[am]}$PEPTIDE1,PEPTIDE1,5:R3-9:R3$$$V2.0) | 7.5 to 15 µM | 0.86 | < 0.4 µM
8 | CC[C@H](C)[C@@H]1NC(=O)[C@@H](NC(=O)[C@H](CCC(N)=O)NC(=O)[C@H](C)N(C)C(C)=O)CCCCNC(=O)CC[C@@H](C(=O)N[C@@H](Cc2c[nH]cn2)C(=O)N[C@H](C(=O)N[C@@H](CCC(N)=O)C(=O)N[C@@H](CCCNC(=N)N)C(=O)N[C@H](C(=O)N[C@@H](Cc2c[nH]c3ccccc23)C(N)=O)C(C)C)C2CCCCC2)NC(=O)[C@H](CC(=O)O)NC(=O)[C@H](CC(C)C)NC1=O [compound 445] (HELM PEPTIDE1{[ac].[meA].Q.K.I.L.D.E.H.[O=C([C@@H](N[*:1])C1CCCCC1)[*:2]].Q.R.V.W.[am]}$PEPTIDE1,PEPTIDE1,4:R3-8:R3$$$V2.0) | 22.5 to 30 µM | 0.7 | < 0.4 µM
9 | CC[C@H](C)[C@@H]1NC(=O)[C@@H](NC(=O)[C@H](CCC(N)=O)NC(=O)[C@H](C)N(C)C(C)=O)CCCCNC(=O)CC[C@@H](C(=O)N[C@@H](Cc2c[nH]cn2)C(=O)N[C@H](C(=O)N[C@@H](CCC(N)=O)C(=O)N[C@@H](CCCNC(=N)N)C(=O)N[C@H](C(=O)N[C@@H](Cc2c[nH]c3ccccc23)C(=O)N[C@@H](CCCNC(=N)N)C(N)=O)C(C)C)C2CCCCC2)NC(=O)[C@H](CC(=O)O)NC(=O)[C@H](CC(C)C)NC1=O [compound 448] (HELM PEPTIDE1{[ac].[meA].Q.K.I.L.D.E.H.[O=C([C@@H](N[*:1])C1CCCCC1)[*:2]].Q.R.V.W.R.[am]}$PEPTIDE1,PEPTIDE1,4:R3-8:R3$$$V2.0) | > 30 µM | 0.7 | < 0.4 µM
10 | CC[C@H](C)[C@@H]1NC(=O)[C@@H](NC(=O)[C@H](CCC(N)=O)NC(=O)[C@H](C)N(C)C(=O)[C@H](Cc2c[nH]c3ccccc23)NC(C)=O)CCCCNC(=O)CC[C@@H](C(=O)N[C@@H](Cc2c[nH]cn2)C(=O)N[C@H](C(=O)N[C@@H](CCC(N)=O)C(=O)N[C@@H](CCCNC(=N)N)C(=O)N[C@H](C(=O)N[C@@H](Cc2c[nH]c3ccccc23)C(=O)N[C@@H](CCCNC(=N)N)C(N)=O)C(C)C)C2CCCCC2)NC(=O)[C@H](CC(=O)O)NC(=O)[C@H](CC(C)C)NC1=O [compound 449] (HELM PEPTIDE1{[ac].W.[meA].Q.K.I.L.D.E.H.[O=C([C@@H](N[*:1])C1CCCCC1)[*:2]].Q.R.V.W.R.[am]}$PEPTIDE1,PEPTIDE1,5:R3-9:R3$$$V2.0) | > 30 µM | 0.89 | < 0.4 µM

Reference: patent publication US12441768B2, “Compositions and methods for treating endometriosis” (EndoMet Biosciences, Inc., priority 2018, dated 2025)
